Results as given in article PMC9224473 (International Journal of Molecular Sciences, 2022).
In brackets after ≈: the same amount, converted by molar mass.

Assays:
[1] = test system: S. epidermidis ATCC 35984; test: MIC, broth microdilution, standard strain; format: cell-based, Staphylococcus epidermidis; details: Staphylococcus epidermidis, ATCC35984, 19 h, 35 °C
S. epidermidis KR 4243 = test: MIC, broth microdilution, clinical strain; format: cell-based, Staphylococcus epidermidis; details: Staphylococcus epidermidis, KR4243, 19 h, 35 °C
[2] = test system: SW620 (human metastatic colon cancer); test: MTT cytotoxicity assay; format: cell-based; details: Homo sapiens, SW-620, 72 h, mean SD
Description: (§1) The human cell lines SW480 (primary colon cancer), SW620 (lymph node metastatic colon cancer from the same patient as primary cancer cells), HCT116 (colon carcinoma), HepG2 (liver cancer), and HaCaT (immortalized keratinocytes) were obtained from the American Type Culture Collection (ATCC, Rockville, MD, USA). The SW480, SW620 and HCT116 cells were grown in MEM (ThermoSci, Waltham, MA, USA), HepG2 and HaCaT in DMEM High Glucose (Biowest SAS, Nuaillé, France) supplemented with 10% foetal bovine serum (FBS), HEPES (20 mM), and antibiotics (100 U mL^−1 of Penicillin and 100 μg mL^−1 of Streptomycin). The cells were incubated in a humidified incubator at 37 °C/5% CO2, until 80–90% confluence was reached.
The cell viability was assessed by using of MTT salt [3-(4,5-dimethylthiazol-2-yl)-2,5-diphenyltetrazolium bromide] converted by mitochondrial dehydrogenase, occurring in living cells. […] The untreated cells were used as the control.
(§2) Subsequently, the medium was removed and dimethyl sulfoxide (DMSO) with isopropanol (1:1) was added to dissolve the formazan crystals. The optical density was measured using UVM 340 reader (ASYS Hitech GmbH, Eugendorf, Austria) at a wavelength of 570 nm. The experiments were repeated three times. The cell viability was calculated as the percent of MTT reduced in treated cells versus control cells (untreated cells). The number of viable cells cultured without tested compounds was assumed as 100%. A decreased relative MTT level indicates decreased cell viability. The IC50 values were estimated using CompuSyn version 1.0.

[3] = test system: HepG2 (human liver cancer); test: MTT cytotoxicity assay; format: cell-based; details: Homo sapiens, HepG2, 72 h, mean SD
Description: as §1
(§3) The cell viability was assessed by using of MTT salt [3-(4,5-dimethylthiazol-2-yl)-2,5-diphenyltetrazolium bromide] converted by mitochondrial dehydrogenase, occurring in living cells. The cells were seeded in 96-well plates at a density of 1 × 10^4 cells per well and allowed to adhere for 24 h at 37 °C in a CO2 humidified incubator. […]. The untreated cells were used as the control.
as §2, with “After 72 h incubation, the medium was replaced with 200 µL per well of free-serum medium containing 0.5 mg mL^−1 MTT and incubated for 4 h at 37 °C in a CO2 humidified incubator. Subsequently,” for “Subsequently,”

[4] = test system: SW480 (human primary colon cancer); test: MTT cytotoxicity assay; format: cell-based; details: Homo sapiens, SW480, 72 h, mean SD
Description: as §1, §3
as §2, with “After 72 h incubation, the medium was replaced with 200 µL per well of free-serum medium containing 0.5 mg mL^−1 MTT and incubated for 4 h at 37 °C in a CO2 humidified incubator. Subsequently,” for “Subsequently,”

[5] = test system: HCT116 (human colon cancer); test: MTT cytotoxicity assay; format: cell-based; details: Homo sapiens, HCT-116, 72 h, mean SD
Description: as §1, §3
as §2, with “After 72 h incubation, the medium was replaced with 200 µL per well of free-serum medium containing 0.5 mg mL^−1 MTT and incubated for 4 h at 37 °C in a CO2 humidified incubator. Subsequently,” for “Subsequently,”

[6] = test system: HaCaT (human immortal keratinocyte cell line); test: MTT cytotoxicity assay; format: cell-based; details: Homo sapiens, HaCaT, 72 h, mean SD, read-out: IC50 HaCaT (normal cells)
Description: as §1, §3
as §2, with “After 72 h incubation, the medium was replaced with 200 µL per well of free-serum medium containing 0.5 mg mL^−1 MTT and incubated for 4 h at 37 °C in a CO2 humidified incubator. Subsequently,” for “Subsequently,”

[7] = test system: S. epidermidis ATCC 12228; test: MIC, broth microdilution, standard strain; format: cell-based, Staphylococcus epidermidis; details: Staphylococcus epidermidis, ATCC12228, 19 h, 35 °C
E. coli ATCC 25922 = test: MIC, broth microdilution, standard strain; format: cell-based, Escherichia coli; details: 35 °C; for MIC: Escherichia coli, ATCC25922, 19 h; for MIC E. coli ATCC 25922: 19 h
S. aureus ATCC 6538 = test: MIC, broth microdilution, standard strain; format: cell-based, Staphylococcus aureus; details: Staphylococcus aureus, ATCC6538, 19 h, 35 °C
S. aureus T 5591 = test: MIC, broth microdilution, clinical strain; format: cell-based, Staphylococcus aureus; details: Staphylococcus aureus, T5591, 19 h, 35 °C
P. aeruginosa ATCC 15442 = test: MIC, broth microdilution, standard strain; format: cell-based, Pseudomonas aeruginosa; details: Pseudomonas aeruginosa, ATCC15442, 19 h, 35 °C
S. aureus ATCC 29213 = test: MIC, broth microdilution, standard strain; format: cell-based, Staphylococcus aureus; details: Staphylococcus aureus, ATCC29213, 19 h, 35 °C
S. aureus NCTC 4163 = test: MIC, broth microdilution, standard strain; format: cell-based, Staphylococcus aureus; details: Staphylococcus aureus, NCTC4163, 19 h, 35 °C
E. coli 520 = test: MIC, broth microdilution, clinical strain; format: cell-based, Escherichia coli; details: Escherichia coli, 520, 19 h, 35 °C
S. aureus ATCC 25923 = test: MIC, broth microdilution, standard strain; format: cell-based, Staphylococcus aureus; details: Staphylococcus aureus, ATCC25923, 19 h, 35 °C
S. aureus T 5595 = test: MIC, broth microdilution, clinical strain; format: cell-based, Staphylococcus aureus; details: Staphylococcus aureus, T5595, 19 h, 35 °C
E. coli 600 = test: MIC, broth microdilution, clinical strain; format: cell-based, Escherichia coli; details: Escherichia coli, 600, 19 h, 35 °C
S. pasteuri KR 4358 = test: MIC, broth microdilution, clinical strain; format: cell-based, Staphylococcus pasteuri; details: Staphylococcus pasteuri, KR4358, 19 h, 35 °C
P. aeruginosa 659 = test: MIC, broth microdilution, clinical strain; format: cell-based, Pseudomonas aeruginosa; details: Pseudomonas aeruginosa, 659, read-out: MIC P. aeruginosa 659, 19 h, 35 °C
E. coli 510 = test: MIC, broth microdilution, clinical strain; format: cell-based, Escherichia coli; details: Escherichia coli, 510, 19 h, 35 °C

SMILES	MIC [1] [µg/mL]	MIC (S. epidermidis KR 4243) [µg/mL]	IC50 [2] [µM]	IC50 [3] [µM]	IC50 [4] [µM]	IC50 [5] [µM]	IC50 [6] [µM]	MIC [7] [µg/mL]	MIC (E. coli ATCC 25922) [µg/mL]	MIC (S. aureus ATCC 6538) [µg/mL]	MIC (S. aureus T 5591) [µg/mL]	MIC (P. aeruginosa ATCC 15442) [µg/mL]	MIC (S. aureus ATCC 29213) [µg/mL]	MIC (S. aureus NCTC 4163) [µg/mL]	MIC (E. coli 520) [µg/mL]	MIC (S. aureus ATCC 25923) [µg/mL]	MIC (S. aureus T 5595) [µg/mL]	MIC (E. coli 600) [µg/mL]	MIC (S. pasteuri KR 4358) [µg/mL]	MIC (P. aeruginosa 659) [µg/mL]	further results
CC(C)[C@@H]1CC[C@@H](C)C[C@H]1OC(=O)CCCCN1CCN(c2cc3c(cc2F)c(=O)c(C(=O)O)cn3C2CC2)CC1 [Compound 5, 1-cyclopropyl-6-fluoro-7-{4-[5-((1R,2S,5R)-2-isopropyl-5-methylcyclohexyloxy)-5-oxopentyl)piperazin-1-yl)-4-oxo-1,4-dihydroquinoline-3-carboxylic acid]	8 (≈ 14 µM)	4 (≈ 7.02 µM)	26.5 ± 2.1	49.4 ± 4.6	55.4 ± 3.8	35.3 ± 1.7	43.3 ± 4.4	8 (≈ 14 µM)	16 (≈ 28.1 µM)	4 (≈ 7.02 µM)	2 (≈ 3.51 µM)	256 (≈ 449 µM)	4 (≈ 7.02 µM)	4 (≈ 7.02 µM)	64 (≈ 112 µM)	8 (≈ 14 µM)	4 (≈ 7.02 µM)	64 (≈ 112 µM)	4 (≈ 7.02 µM)	> 256	MIC (E. coli 510): > 256 µg/mL
Cc1ccc(C(C)C)c(OC(=O)CCCCN2CCN(c3cc4c(cc3F)c(=O)c(C(=O)O)cn4C3CC3)CC2)c1 [Compound 13, 1-cyclopropyl-6-fluoro-7-{4-[5-(2-isopropyl-5-methylphenoxy)-5-oxopentyl]piperazin-1-yl}-4-oxo-1,4-dihydroquinoline-3-carboxylic acid]	2 (≈ 3.55 µM)	2 (≈ 3.55 µM)	50.2 ± 0.8	33.8 ± 2.1	48.1 ± 2.8	50.2 ± 3.4	> 100	2 (≈ 3.55 µM)	2 to 4 (≈ 3.55 to 7.1 µM)	2 (≈ 3.55 µM)	2 (≈ 3.55 µM)	16 (≈ 28.4 µM)	2 (≈ 3.55 µM)	2 (≈ 3.55 µM)	4 (≈ 7.1 µM)	4 (≈ 7.1 µM)	2 (≈ 3.55 µM)	8 (≈ 14.2 µM)	2 (≈ 3.55 µM)	128 (≈ 227 µM)	MIC E. coli ATCC 25922 (E. coli ATCC 25922): 4 µg/mL (≈ 7.1 µM); MIC (E. coli 510): 128 µg/mL (≈ 227 µM)
CC(C)[C@@H]1CC[C@@H](C)C[C@H]1OC(=O)CCCN1CCN(c2cc3c(cc2F)c(=O)c(C(=O)O)cn3C2CC2)CC1 [Compound 4, 1-cyclopropyl-6-fluoro-7-{4-[4-((1R,2S,5R)-2-isopropyl-5-methylcyclohexyloxy)-4-oxobutyl]piperazin-1-yl}-4-oxo-1,4-dihydroquinoline-3-carboxylic acid]	4 (≈ 7.2 µM)	4 (≈ 7.2 µM)	54.3 ± 4.1	35.1 ± 4.4	36.8 ± 2.6	24.2 ± 0.1	30.5 ± 2.4	4 (≈ 7.2 µM)	2 to 4 (≈ 3.6 to 7.2 µM)	4 (≈ 7.2 µM)	4 (≈ 7.2 µM)	64 (≈ 115 µM)	4 (≈ 7.2 µM)	4 (≈ 7.2 µM)	8 (≈ 14.4 µM)	4 (≈ 7.2 µM)	4 (≈ 7.2 µM)	4 (≈ 7.2 µM)	4 (≈ 7.2 µM)	256 (≈ 461 µM)	MIC E. coli ATCC 25922 (E. coli ATCC 25922): 4 µg/mL (≈ 7.2 µM); MIC (E. coli 510): 256 µg/mL (≈ 461 µM)
